Results published in patent publication US4160829A, “Antibacterial 1,2,4-oxadiazolylacetamido cephalosporins” (Gist-Brocades N.V., priority 1972, dated 1979).
In brackets after ≈: the same amount, converted by molar mass.

Columns and labels:
[1] = tested on: Bac.Subt.ATCC 6633; assay: agar serial dilution test; type: cell-based, Bacillus subtilis; settings: Bacillus subtilis, ATCC6633, 24 h, agar serial dilution, 24 hours, 37° C.; read-out: minimal inhibitory concentration (MIC)
[2] = tested on: Staph.aureus A 321; assay: agar serial dilution test; type: cell-based, Staphylococcus aureus; settings: Staphylococcus aureus, A321, 24 h, agar serial dilution, 24 hours, 37° C.; read-out: minimal inhibitory concentration (MIC)
[3] = tested on: Staph.aureus A 2000; assay: agar serial dilution test; type: cell-based, Staphylococcus aureus; settings: Staphylococcus aureus, A2000, 24 h, agar serial dilution, 24 hours, 37° C.; read-out: minimal inhibitory concentration (MIC)
[4] = tested on: Staph.aureus A 2001; assay: agar serial dilution test; type: cell-based, Staphylococcus aureus; settings: Staphylococcus aureus, A2001, 24 h, agar serial dilution, 24 hours, 37° C.; read-out: minimal inhibitory concentration (MIC)
[5] = tested on: Strep.haem. A 266; assay: agar serial dilution test; type: cell-based, Streptococcus haemolyticus; settings: Streptococcus; agar serial dilution, 24 hours, 37° C.; read-out: minimal inhibitory concentration (MIC)
[6] = tested on: Strep. faec. L 80; assay: agar serial dilution test; type: cell-based, Streptococcus faecalis; settings: Enterococcus faecalis; agar serial dilution, 24 hours, 37° C.; read-out: minimal inhibitory concentration (MIC)
[7] = tested on: Dipl.pneum. L 54; assay: agar serial dilution test; type: cell-based, Diplococcus pneumoniae; settings: Streptococcus pneumoniae; agar serial dilution, 24 hours, 37° C.; read-out: minimal inhibitory concentration (MIC)
[8] = tested on: Bruc.melit. A 488; assay: microbe, parasite or virus in culture; type: cell-based; settings: Brucella melitensis, 24 h, read-out: minimal inhibitory concentration (MIC)
[9] = tested on: Past.multo. A 723; assay: agar serial dilution test; type: cell-based, Pasteurella multocida; settings: Pasteurella multocida; agar serial dilution, 24 hours, 37° C.; read-out: minimal inhibitory concentration (MIC)
[10] = tested on: Kleb.pneum. A 809; assay: agar serial dilution test; type: cell-based, Klebsiella pneumoniae; settings: Klebsiella pneumoniae; agar serial dilution, 24 hours, 37° C.; read-out: minimal inhibitory concentration (MIC)
[11] = tested on: Salm.dubl. P 43; assay: agar serial dilution test; type: cell-based, Salmonella dublin; settings: Salmonella enterica; agar serial dilution, 24 hours, 37° C.; read-out: minimal inhibitory concentration (MIC)
[12] = tested on: Salm.typh. R 127; assay: agar serial dilution test; type: cell-based; settings: 24 h, 37° C., read-out: minimal inhibitory concentration (MIC)
[13] = tested on: Esch.coli U 20; assay: agar serial dilution test; type: cell-based, Escherichia coli; settings: Escherichia coli, U20; agar serial dilution, 24 hours, 37° C.; read-out: minimal inhibitory concentration (MIC)
[14] = tested on: Shig.equir. T 3; assay: agar serial dilution test; type: cell-based; settings: 24 h, 37° C., read-out: minimal inhibitory concentration (MIC)
[15] = tested on: Pseud.aerug. H 10; assay: agar serial dilution test; type: cell-based; settings: agar serial dilution, 24 hours, 37° C.; read-out: minimal inhibitory concentration (MIC)
[16] = tested on: Pseud.aerug. 2396; assay: agar serial dilution test; type: cell-based; settings: agar serial dilution, 24 hours, 37° C.; read-out: minimal inhibitory concentration (MIC)
[17] = tested on: Pseud.aerug. Wyeth A 1058; assay: agar serial dilution test; type: cell-based; settings: agar serial dilution, 24 hours, 37° C.; read-out: minimal inhibitory concentration (MIC)
[18] = tested on: Prot.rettg. A 821; assay: agar serial dilution test; type: cell-based, Proteus rettgeri; settings: Providencia rettgeri, 24 h, agar serial dilution, 24 hours, 37° C.; read-out: minimal inhibitory concentration (MIC)
[19] = tested on: Prot.mirab. H 3; assay: agar serial dilution test; type: cell-based, Proteus mirabilis; settings: Proteus mirabilis; agar serial dilution, 24 hours, 37° C.; read-out: minimal inhibitory concentration (MIC)
[20] = tested on: Prot.mirab. L 93; assay: agar serial dilution test; type: cell-based, Proteus mirabilis; settings: Proteus mirabilis; agar serial dilution, 24 hours, 37° C.; read-out: minimal inhibitory concentration (MIC)
[21] = tested on: Prot.mirab. A 1200; assay: agar serial dilution test; type: cell-based, Proteus mirabilis; settings: Proteus mirabilis, 24 h, agar serial dilution, 24 hours, 37° C.; read-out: minimal inhibitory concentration (MIC)
[22] = tested on: Prot.morg. 2241; assay: agar serial dilution test; type: cell-based; settings: 24 h, agar serial dilution, 24 hours, 37° C.; read-out: minimal inhibitory concentration (MIC)
[23] = tested on: Haem.infl. A 1030; assay: micro serial dilution test; type: cell-based; settings: 18 h, micro serial dilution (in brackets), about 18 hours, 30° C. or 37° C.; read-out: minimal inhibitory concentration (MIC)
[24] = tested on: Staph.aureus A 355; assay: agar serial dilution test; settings: Staphylococcus aureus, A355, 24 h, read-out: minimal inhibitory concentration (MIC), agar serial dilution, 24 hours, 37° C.; penicillinase-producing strain

| Compound | MIC [1] | MIC [2] | MIC [3] | MIC [4] | MIC [5] | MIC [6] | MIC [7] | MIC [8] | MIC [9] | MIC [10] | MIC [11] | MIC [12] | MIC [13] | MIC [14] | MIC [15] | MIC [16] | MIC [17] | MIC [18] | MIC [19] | MIC [20] | other results |
| --- | --- | --- | --- | --- | --- | --- | --- | --- | --- | --- | --- | --- | --- | --- | --- | --- | --- | --- | --- | --- | --- |
| Cc1noc(C(C)C(=O)N[C@@H]2C(=O)N3[C@@H]2SC(C)(C)[C@@H]3C(=O)O)n1 (mixture of isomers) [Example 11H, dl-6[α-methyl-(3-methyl-1,2,4-oxadiazol-5-yl)-acetamido]-penicillanic acid] | 0.06 µg/mL | 0.25 µg/mL | 6 µg/mL | 3 µg/mL | 0.5 µg/mL | 6 µg/mL | 0.25 µg/mL | 0.25 µg/mL | 1.5 µg/mL | > 100 µg/mL | 50 µg/mL | 100 µg/mL | ≥ 100 µg/mL | 25 µg/mL | > 100 µg/mL | > 100 µg/mL | > 100 µg/mL | 12.5 µg/mL | > 100 µg/mL | 6 µg/mL | MIC [21]: > 100 µg/mL; MIC [22]: > 100 µg/mL; MIC [23]: 3.7 µg/mL; MIC [24]: 12.5 µg/mL |
| CCc1noc(CC(=O)N[C@@H]2C(=O)N3C(C(=O)O)=C(COC(C)=O)CS[C@H]23)n1 [Example 11L, 7-[(3-ethyl-1,2,4-oxadiazol-5-yl)-acetamido]-cephalosporanic acid] | 0.12 µg/mL (≈ 0.292 µM) | 0.25 µg/mL (≈ 0.609 µM) | 1 µg/mL (≈ 2.44 µM) | 1 µg/mL (≈ 2.44 µM) | 0.25 µg/mL (≈ 0.609 µM) | 50 µg/mL (≈ 122 µM) | 1 µg/mL (≈ 2.44 µM) | 6 µg/mL (≈ 14.6 µM) | 2 µg/mL (≈ 4.87 µM) | 1.5 µg/mL (≈ 3.65 µM) | 3 µg/mL (≈ 7.31 µM) | 6 µg/mL (≈ 14.6 µM) | 6 µg/mL (≈ 14.6 µM) | 3 µg/mL (≈ 7.31 µM) | > 100 µg/mL | > 100 µg/mL | > 100 µg/mL | 1 µg/mL (≈ 2.44 µM) | 50 µg/mL (≈ 122 µM) | 3 µg/mL (≈ 7.31 µM) | MIC [21]: 25 µg/mL (≈ 60.9 µM); MIC [22]: > 100 µg/mL; MIC [23]: ≥ 125 µg/mL; MIC [24]: 1 µg/mL (≈ 2.44 µM) |
| CCc1noc(C(C)C(=O)N[C@@H]2C(=O)N3[C@@H]2SC(C)(C)[C@@H]3C(=O)O)n1 (stereo partly drawn) [Example 11M, sodium 6-[α-methyl-(3-ethyl-1,2,4-oxadiazol-5-yl)-acetamido]-penicillanate H2 O] | 0.06 µg/mL | 0.12 µg/mL | 6 µg/mL | 6 µg/mL | 0.5 µg/mL | 6 µg/mL | 0.5 µg/mL | 0.5 µg/mL | 1 µg/mL | > 100 µg/mL | 50 µg/mL | > 100 µg/mL | > 100 µg/mL | 50 µg/mL | > 100 µg/mL | > 100 µg/mL | > 100 µg/mL | 3 µg/mL | > 100 µg/mL | 25 µg/mL | MIC [21]: > 100 µg/mL; MIC [22]: > 100 µg/mL; MIC [23]: 3.7 µg/mL; MIC [24]: 12.5 µg/mL |
